The values below come from US20090158447A1, “TLR ligand and IL-1 Response-Injured Animal Model” (priority 2004, published 2009).

First the molecules themselves.
B1: RelA (other, mouse, UniProt Q04207 1-549, looked up)
chain: MDDLFPLIFPSEPAQASGPYVEIIEQPKQRGMRFRYKCEGRSAGSIPGERSTDTTKTHPTIKINGYTGPGTVRISLVTKDPPHRPHPHELVGKDCRDGYYEADLCPDRSIHSFQNLGIQCVKKRDLEQAISQRIQTNNNPFHVPIEEQRGDYDLNAVRLCFQVTVRDPAGRPLLLTPVLSHPIFDNRAPNTAELKICRVNRNSGSCLGGDEIFLLCDKVQKEDIEVYFTGPGWEARGSFSQADVHRQVAIVFRTPPYADPSLQAPVRVSMQLRRPSDRELSEPMEFQYLPDTDDRHRIEEKRKRTYETFKSIMKKSPFNGPTEPRPPTRRIAVPTRNSTSVPKPAPQPYTFPASLSTINFDEFSPMLLPSGQISNQALALAPSSAPVLAQTMVPSSAMVPLAQPPAPAPVLTPGPPQSLSAPVPKSTQAGEGTLSEALLHLQFDADEDLGALLGNSTDPGVFTDLASVDNSEFQQLLNQGVSMSHSTAEPMLMEYPEAITRLVTGSQRPPDPAPTPLGTSGLPNGLSGDEDFSSIADMDFSALLSQISS
notes: Immunoprecipitated with anti-RelA (Santa Cruz); also called NF-κB RelA
B2: p52 subunit (other, mouse, UniProt Q9WTK5 1-454, looked up)
chain: MDNCYDPGLDGIPEYDDFEFSPSIVEPKDPAPETADGPYLVIVEQPKQRGFRFRYGCEGPSHGGLPGASSEKGRKTYPTVKICNYEGPAKIEVDLVTHSDPPRAHAHSLVGKQCSELGVCAVSVGPKDMTAQFNNLGVLHVTKKNMMEIMIQKLQRQRLRSKPQGLTEAERRELEQEAKELKKVMDLSIVRLRFSAFLRASDGSFSLPLKPVISQPIHDSKSPGASNLKISRMDKTAGSVRGGDEVYLLCDKVQKDDIEVRFYEDDENGWQAFGDFSPTDVHKQYAIVFRTPPYHKMKIERPVTVFLQLKRKRGGDVSDSKQFTYYPLVEDKEEVQRKRRKALPTFSQPFGGGSHMGGGSGGSAGGYGGAGGGGSLGFFSSSLAYNPYQSGAAPMGCYPGGGGGAQMAGSRRDTDAGEGAEEPRTPPEAPQGEPQALDTLQRAREYNARLFGLA
B3: RelB (other, mouse, UniProt Q04863 1-558, looked up)
chain: MPSRRAARESAPELGALGSSDLSSLSLTVSRTTDELEIIDEYIKENGFGLDGTQLSEMPRLVPRGPASLSSVTLGPAAPPPPATPSWSCTLGRLVSPGPCPRPYLVITEQPKQRGMRFRYECEGRSAGSILGESSTEASKTLPAIELRDCGGLREVEVTACLVWKDWPHRVHPHSLVGKDCTDGVCRVRLRPHVSPRHSFNNLGIQCVRKKEIEAAIERKIQLGIDPYNAGSLKNHQEVDMNVVRICFQASYRDQQGHLHRMDPILSEPVYDKKSTNTSELRICRINKESGPCTGGEELYLLCDKVQKEDISVVFSTASWEGRADFSQADVHRQIAIVFKTPPYEDLEISEPVTVNVFLQRLTDGVCSEPLPFTYLPRDHDSYGVDKKRKRGLPDVLGELSSSDPHGIESKRRKKKPVFLDHFLPGHSSGLFLPPSALQPADSDFFPASISLPGLEPPGGPDLLDDGFAYDPSAPTLFTMLDLLPPAPPLASAVVGSGGAGATVVESSGPEPLSLDSFAAPGPGDVGTASLVGSNMFPNQYREAAFGGGLLSPGPEAT
B4: c-Rel (other, mouse, UniProt P15307 2-587, looked up)
chain: ASSGYNPYVEIIEQPRQRGMRFRYKCEGRSAGSIPGERSTDNNRTYPSVQIMNYYGKGKIRITLVTKNDPYKPHPHDLVGKDCRDGYYEAEFGPERRPLFFQNLGIRCVKKKEVKGAIILRISAGINPFNVGEQQLLDIEDCDLNVVRCVFMFFLPDEDGNFTTALPPIVSNPIYDNRAPNTAELRICRVNKNCGSVRGGDEIFLLCDKVQKDDIEVRFVLNDWEARGVFSQADVHRQVAIVFKTPPYCKAILEPVTVKMQLRRPSDQEVSESMDFRYLPDEKDAYGNKSKKQKTTLIFQKLLQDCGHFTEKPRTAPLGSTGEGRFIKKESNLFSHGTVLPEMPRSSGVPGQAEPYYSSCGSISSGLPHHPPAIPSVAHQPTSWPPVTHPTSHPVSTNTLSTFSAGTLSSNSQGILPFLEGPGVSDLSASNSCLYNPDDLARMETPSMSPTDLYSISDVNMLSTRPLSVMAPSTDGMGDTDNPRLVSINLENPSCNARLGPRDLRQLHQMSPASLSAGTSSSSVFVSQSDAFDRSNFSCVDNGLMNEPGLSDDANNPTFVQSSHYSVNTLQSEQLSDPFTYGFFKI
notes: Immunoprecipitated with anti-c-Rel (Santa Cruz)

One assay deals with peritoneal macrophages or lung-derived normal cells. Nature of the assay: Northern blot analysis of IκB-ζ, Bcl-3 and IκB-α expression on TLR/IL-1R stimulation. In kind it is cell-based, mouse. The settings on record: stimulation for 2 hours, FIG. 1a. Here is the method: Peritoneal macrophages and lung primary cells were stimulated with 100 ng ml^−1 BLP, 10 μg ml^−1 PGN, 30 ng ml^−1 MALP-2, 100 nM R-848, 3 μM CpG DNA, 10 ng ml^−1 IL-1β, 10 μg ml^−1 LPS, 100 ng ml^−1 flagellin, and 10 ng ml^−1 TNF-α for 2 hours. Total RNA (10 μg) was extracted and subjected to Northern blot analysis for investigating the expression of IκB-ζ, Bcl-3, IκB-α, and β-actin. b. MEFs from wild-type and MyD88-deficient mice were stimulated with 10 ng ml^−1 IL-1β and 10 μg ml^−1 LPS for the indicated periods. Total RNA (10 μg) was extracted and subjected to Northern blot analysis for investigating the expression of IκB-ζ, Cox-2, IP-10, and β-actin.
Whether IκB-ζ would be induced in response to other TLR ligands was examined based on the fact that stimulation with IL-1 or LPS induces IκB-ζ in macrophage cell lines and fibroblasts, and that IL-1R and the receptor for LPS, TLR4, share the intracellular signaling pathways. […] On the other hand, other IκB family members, IκB-α and Bcl-3, were induced in response to TNF-αas well as a TLR ligand and IL-1. Taken together, unlike IκB-α and Bcl-3, the IκB-ζ induction is specifically detected on the TLR/IL-1R stimulation.
Turning to `CCOCc1nc2c(N)nc3ccccc3c2n1CC(C)(C)O` [R848], the “IκB-ζ mRNA induction” value is “strongly induced”.

For “IL-1: Interleukin-1; recombinant IL-1β obtained from Genzyme”, the Bcl-3 induction result is “induced”, the IκB-α induction entry is “induced” and the “IκB-ζ mRNA induction” value is “strongly induced”.

Turning to MALP-2, the “IκB-ζ mRNA induction” value is “strongly induced”.

On to TNF-α, for which the Bcl-3 induction entry is recorded as “induced”, the IκB-α induction result was “induced” and the “IκB-ζ mRNA induction” value is reported as “no induction was observed”.

Regarding flagellin, the “IκB-ζ mRNA induction” value was “strongly induced”.

Regarding peptidoglycan [PGN], the “IκB-ζ mRNA induction” value is “strongly induced”.

A further assay has as its target T1, IκB-ζ (mouse, UniProt Q9EST8 1-728, limits assumed).
T1 construct: also called MAIL; INAP
T1 sequence (looked up): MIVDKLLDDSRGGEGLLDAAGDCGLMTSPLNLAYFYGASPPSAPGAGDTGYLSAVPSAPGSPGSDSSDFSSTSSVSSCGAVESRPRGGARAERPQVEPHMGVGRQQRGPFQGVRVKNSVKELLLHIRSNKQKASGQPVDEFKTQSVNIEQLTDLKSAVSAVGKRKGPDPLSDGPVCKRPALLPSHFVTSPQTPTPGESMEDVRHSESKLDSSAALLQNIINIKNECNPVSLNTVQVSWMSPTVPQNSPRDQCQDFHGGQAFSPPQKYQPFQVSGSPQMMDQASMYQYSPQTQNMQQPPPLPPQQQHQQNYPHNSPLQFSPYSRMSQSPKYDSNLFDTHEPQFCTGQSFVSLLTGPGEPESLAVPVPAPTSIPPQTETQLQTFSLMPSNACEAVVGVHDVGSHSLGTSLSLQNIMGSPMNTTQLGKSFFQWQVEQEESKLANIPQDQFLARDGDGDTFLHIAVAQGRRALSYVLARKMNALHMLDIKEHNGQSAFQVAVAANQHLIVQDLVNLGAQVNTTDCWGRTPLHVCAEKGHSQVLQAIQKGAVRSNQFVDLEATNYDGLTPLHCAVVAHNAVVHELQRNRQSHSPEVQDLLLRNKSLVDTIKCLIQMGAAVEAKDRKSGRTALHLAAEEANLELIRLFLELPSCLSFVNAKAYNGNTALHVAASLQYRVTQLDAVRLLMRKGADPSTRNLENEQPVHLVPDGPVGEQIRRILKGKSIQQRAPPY
Description: co-immunoprecipitation from peritoneal macrophage lysates, immunoblot with α-IκB-ζ.
Conditions: not given
From the text:
RAW 264.7 cells were transiently transfected with luciferase reporter constructs of either mouse IL-6 promoter or ELAM1 promoter together with either a control or the IκB-ζ expression plasmid. Luciferase activities were expressed as fold-increase over the background shown by lysates prepared from untransfected cells. Data are representative of three separate experiments. In all three experiments, cells were stimulated with the indicated concentrations of LPS. b. A certain amount of IκB-ζ expression vector was transiently introduced into untreated RAW 264.7 cells with the indicated amount of IL-6 reporter plasmid. Data are representative of three independent experiments. c. Reporter constructs of either a wild-type or mutant IL-6 promoter were transiently introduced into P19 embryonic canrinoma cells together with either a control or an IκB-ζ expression plasmid. Luciferase activities were normalized in each case of reporter constructs by dividing the increase rate of IκB-ζ-expressed cells over the background shown by lysates by that of mock-expressed cells. d. Chromatin from untreated (−) or LPS-treated (+) (1 μg ml⁻¹ for 3 hours) RAW 264.7 cells were used for ChIp with the indicated antibodies. Precipitated DNA for the IL-6 κB site (left), 3′ region of IL-6 gene (center), or ELAM1 promoter (right) was measured by PCR (ChIP). Data are representative of two independent experiments. e. Unstimulated or LPS-stimulated (10 ng ml⁻¹) peritoneal macrophages were immunoprecepitated with the indicated antibodies. The immunoprecipitated lysates were subsequently immunoblotted with α-IκB-ζ.
Peritoneal macrophages and MEFs were stimulated with the indicated ligands for the indicated periods. The cells were then lysed in a lysis buffer containing 1.0% Nonidet-P40, 150 mM NaCl, 20 mM Tris-Cl (pH 7.5), 5 mM EDTA and protein inhibitor (Roche). The cell lysates were dissolved by SDS-PAGE and transferred on a PVDF membrances. For immunoprecipitation, cell lysates were precleared with Protein G-Sepharose™ (Amersham Pharmacia Biotech) for 2 h and then incubated with Protein G-Sepharose™ containing 1.0 μg of the indicated antibodies for 12 h with stirring at 4° C. The immunoprecipitants were washed four times with lysis buffer, eluted by boiling with Laemnli sample buffer, and subjected to Western blotting using α-IκB-ζ, as described above.
As for B1, the binding result is “no binding”.

Turning to B2, the binding result is “no binding”.

For B3, the binding result is “no binding”.

On to B4, for which the binding result was “no binding”.
